According to US8293256B2, “Sulfamide derivatives and cosmetic use thereof” (L'Oreal, priority 2004, dated 2012):

Key:
stratum corneum [1] = experiment: Transepidermal Water Loss (TWL) across isolated defatted stratum corneum (Evaporimeter EP1); settings: 40% relative humidity, 30° C., 3% aqueous solution (compounds 9 and 15 in isopropyl N-lauroyl sarcosinate), mean ± standard deviation, 8 samples
Protocol: (§1) Two tests were performed to evaluate the moisturizing potential of the compounds of the invention formulated in an aqueous 3% solution (except for compounds 9 and 15, which were evaluated in a solution of isopropyl N-lauroyl sarcosinate).
Transepidermal Water Loss (TWL), evaluation of the changes in barrier function of the stratum corneum.
Transepidermal water loss is a physiological phenomenon of diffusion of water vapour across the horny layer. It results from the presence of a high pressure gradient of water vapour between the internal and external media of the body. The TWL depends on the integrity of the barrier function of the stratum corneum. The machine evaluating the TWL (Evaporimeter EP1, Servomed) measures the flow of water that diffuses passively across the stratum corneum (g/m^2/h).
The isolated stratum is placed (inner face) on a water tank and equilibrated in a room regulated at 40% relative humidity (T=30° C.). Before the measurement, the stratum corneum is defatted via a two-hour treatment in a mixture of chloroform and methanol (2 v/lv). For each measurement, the TWL is measured on the stratum corneum before treatment and then 2 and 20 hours after application of the treatment. […] The measurements are analysed in pairs. […]
The mean and the standard deviation were calculated on 8 samples distributed over 2 batches of stratum corneum.

stratum corneum [2] = experiment: Dermometer: mechanical measurement of the plasticizing effect (modulus of elasticity); settings: 30° C., 75% relative humidity, 3% aqueous solution (compounds 9 and 15 in isopropyl N-lauroyl sarcosinate), mean ± standard deviation, 6 to 10 samples
Protocol: as §1
Dermometer, mechanical measurement of the plasticizing effect (described by J. de Rigal, J-L. Leveque, International Journal of Cosmetic Science, 1982, 247-260),
The tests carried out were performed under standard conditions on stratum corneum in a room with regulated temperature and humidity (T=30° C. and RH=75%). The modulus of elasticity measurements are performed on each control specimen and then 2 hours and 20 hours after application of the treatment. The relative variation in the modulus allows assessment of the plasticizing effect of the active agent on the stratum corneum.
The mean and the standard deviation were calculated on 6 to 10 samples.

melting point [°C] | SMILES | Relative variation of the TWL measurements (stratum corneum [1]; 2 h after application) [%] | Relative variation of the TWL measurements (stratum corneum [1]; 20 h after application) [%] | Relative variation in the modulus of elasticity of stratum corneum (stratum corneum [2]; 2 h after application) [%] | Relative variation in the modulus of elasticity of stratum corneum (stratum corneum [2]; 20 h after application) [%]
– | NC(N)=O [3% urea in water, urea] | 64.3 ± 26.9 | 48.3 ± 24.5 | −72 ± 9 | −83 ± 7
78 to 82 | NS(=O)(=O)NCCOS(N)(=O)=O [Compound 17, 2-[(aminosulfonyl)amino]ethyl sulfamate] | – | – | – | –
76 to 77.5 | C[Si](C)(C)C(NS(N)(=O)=O)[Si](C)(C)C | – | – | – | –
